Measurements taken from patent US20220331327A1, “THE USE OF PARAXANTHINE TO IMPROVE PERFORMANCE IN VIDEO GAMERS” (priority 2021, published 2022).

System: healthy men and women playing video games
Assay: Video game performance, Super Smash Brothers Ultimate
Format: in vivo, human
Set-up: Damage Taken, Mean of visit / Damage Taken, Mean ± SD: unit not given here
Conditions: 200 mg daily; for Damage Taken, Mean ± SD / Falls (Deaths), Mean ± SD / Hit Percentage, Mean ± SD / Damage Taken, Mean of visit / Falls (Deaths), Mean of visit / Hit Percentage, Mean of visit: n = 5; for Damage Taken, Mean of visit / Falls (Deaths), Mean of visit / Hit Percentage, Mean of visit: mean of 20-120 min; for Damage Taken, Δ Baseline / Falls (Deaths), Δ Baseline: versus baseline; for Damage Taken, Δ PLA / Falls (Deaths), Δ PLA: versus placebo
Description: The effectiveness of study-products (paraxanthine and placebo) was assessed by measuring in-game performance, cognition during gaming (Stroop Test) and mood status during gaming (Profile of Mood States (POMS)). All study participants played the game Super Smash Brothers Ultimate (Nintendo, Release date: Dec. 7, 2018). Each study participant arrived, completed all necessary testing and began playing the game. Game consoles and controllers were available, but if participants wanted to bring their own controller, they were allowed to do so. The game was be set to the same level and strategy for each player. During each session, study participants played the game for 60 minutes and took a break to complete the Stroop Test and POMS. Participants then played the game for an additional 60 minutes before completing their third tests. […]

[1] = gaming between 100 and 120 minutes of play

Compound: Cn1c(=O)[nH]c2ncn(C)c2c1=O [Paraxanthine, paraxanthine]
- Damage Taken, Mean ± SD (3 weeks, 20 min): 870.00 ± 301.09
- Falls (Deaths), Mean ± SD (3 weeks, 20 min): 5.75 ± 2.63
- Hit Percentage, Mean ± SD (3 weeks, 20 min): 37.75 ± 9.64
- Damage Taken, Mean ± SD (3 weeks, 40 min): 1103.00 ± 253.95
- Falls (Deaths), Mean ± SD (3 weeks, 40 min): 8 ± 3.67
- Hit Percentage, Mean ± SD (3 weeks, 40 min): 35.8 ± 8.93
- Damage Taken, Mean ± SD (3 weeks, 60 min): 987.25 ± 396.60
- Falls (Deaths), Mean ± SD (3 weeks, 60 min): 7 ± 3.83
- Hit Percentage, Mean ± SD (3 weeks, 60 min): 38 ± 5.72
- Damage Taken, Mean ± SD (3 weeks, 80 min): 1351.80 ± 341.08
- Falls (Deaths), Mean ± SD (3 weeks, 80 min): 9 ± 3.32
- Hit Percentage, Mean ± SD (3 weeks, 80 min): 35.2 ± 8.17
- Damage Taken, Mean ± SD (3 weeks, 100 min): 1619.60 ± 383.27
- Falls (Deaths), Mean ± SD (3 weeks, 100 min): 11.4 ± 4.04
- Hit Percentage, Mean ± SD (3 weeks, 100 min): 29.4 ± 8.08
- Damage Taken, Mean ± SD (3 weeks, 120 min): 2006.60 ± 376.34
- Falls (Deaths), Mean ± SD (3 weeks, 120 min): 13 ± 3.74
- Hit Percentage, Mean ± SD (3 weeks, 120 min): 26.4 ± 3.51
- Damage Taken, Mean of visit (3 weeks): 1,323.0
- Falls (Deaths), Mean of visit (3 weeks): 9.0
- Hit Percentage, Mean of visit (3 weeks): 33.8
- Damage Taken, Mean ± SD (6 weeks, 20 min): 723.62 ± 457.07
- Falls (Deaths), Mean ± SD (6 weeks, 20 min): 5.2 ± 1.92
- Hit Percentage, Mean ± SD (6 weeks, 20 min): 28.09 ± 16.43
- Damage Taken, Mean ± SD (6 weeks, 40 min): 1077.40 ± 258.42
- Falls (Deaths), Mean ± SD (6 weeks, 40 min): 8 ± 2.74
- Hit Percentage, Mean ± SD (6 weeks, 40 min): 42.2 ± 12.46
- Damage Taken, Mean ± SD (6 weeks, 60 min): 1182.80 ± 317.56
- Falls (Deaths), Mean ± SD (6 weeks, 60 min): 7.4 ± 2.7
- Hit Percentage, Mean ± SD (6 weeks, 60 min): 39.4 ± 6.88
- Damage Taken, Mean ± SD (6 weeks, 80 min): 1425.80 ± 173.33
- Falls (Deaths), Mean ± SD (6 weeks, 80 min): 10 ± 2.55
- Hit Percentage, Mean ± SD (6 weeks, 80 min): 33 ± 5.43
- Damage Taken, Mean ± SD (6 weeks, 100 min): 1697.60 ± 336.71
- Falls (Deaths), Mean ± SD (6 weeks, 100 min): 13.2 ± 2.59
- Hit Percentage, Mean ± SD (6 weeks, 100 min): 30.4 ± 4.98
- Damage Taken, Mean ± SD (6 weeks, 120 min): 1921.80 ± 379.30
- Falls (Deaths), Mean ± SD (6 weeks, 120 min): 14.2 ± 3.56
- Hit Percentage, Mean ± SD (6 weeks, 120 min): 27.2 ± 4.15
- Damage Taken, Mean of visit (6 weeks): 1,338.2
- Falls (Deaths), Mean of visit (6 weeks): 9.7
- Hit Percentage, Mean of visit (6 weeks): 33.4
- Damage Taken, Mean ± SD (Baseline visit, 20 min): 981.20 ± 457.06
- Falls (Deaths), Mean ± SD (Baseline visit, 20 min): 7 ± 3.54
- Hit Percentage, Mean ± SD (Baseline visit, 20 min): 36.6 ± 11.13
- Damage Taken, Mean ± SD (Baseline visit, 40 min): 1306.75 ± 553.65
- Falls (Deaths), Mean ± SD (Baseline visit, 40 min): 10.5 ± 5.26
- Hit Percentage, Mean ± SD (Baseline visit, 40 min): 30.25 ± 11.15
- Damage Taken, Mean ± SD (Baseline visit, 60 min): 1207.60 ± 425.74
- Falls (Deaths), Mean ± SD (Baseline visit, 60 min): 8 ± 3.39
- Hit Percentage, Mean ± SD (Baseline visit, 60 min): 34.6 ± 9.92
- Damage Taken, Mean ± SD (Baseline visit, 80 min): 1527.80 ± 541.49
- Falls (Deaths), Mean ± SD (Baseline visit, 80 min): 10.8 ± 4.97
- Hit Percentage, Mean ± SD (Baseline visit, 80 min): 34.2 ± 8.23
- Damage Taken, Mean ± SD (Baseline visit, 100 min): 1647.20 ± 359.67
- Falls (Deaths), Mean ± SD (Baseline visit, 100 min): 11 ± 3.08
- Hit Percentage, Mean ± SD (Baseline visit, 100 min): 30.6 ± 5.98
- Damage Taken, Mean ± SD (Baseline visit, 120 min): 2067.80 ± 803.18
- Falls (Deaths), Mean ± SD (Baseline visit, 120 min): 16.6 ± 8.59
- Hit Percentage, Mean ± SD (Baseline visit, 120 min): 24.4 ± 4.28
- Damage Taken, Mean of visit (Baseline visit): 1,460.9
- Falls (Deaths), Mean of visit (Baseline visit): 10.65
- Hit Percentage, Mean of visit (Baseline visit): 31.7
- Damage Taken, Δ Baseline (3 weeks): −9.4%
- Falls (Deaths), Δ Baseline (3 weeks): −15.5%
- Damage Taken, Δ PLA (3 weeks): −9.5%
- Falls (Deaths), Δ PLA (3 weeks): −21.7%
- Damage Taken, Δ Baseline (6 weeks): −8.4%
- Falls (Deaths), Δ Baseline (6 weeks): −8.9%
- Damage Taken, Δ PLA (6 weeks): −14.0%
- Falls (Deaths), Δ PLA (6 weeks): −15.6%
- reduction of own damage taken compared to baseline (prior to supplementation) (after 3 weeks): 9.4%
- reduction of own damage taken compared to placebo (after 3 weeks): 9.5%
- reduction of own deaths compared to baseline (prior to supplementation) (after 3 weeks): 15.5%
- reduction of own deaths compared to placebo (after 3 weeks): 21.7%
- improvement over placebo, damage taken, later stages of gaming [1]: 30.9%
- improvement over placebo, number of deaths, later stages of gaming [1]: 34%
